Experimental data reported in patent US11830582B2, “Methods of designing novel antibody mimetics for use in detecting antigens and as therapeutic agents” (UNIVERSITY OF MIAMI, priority 2018, dated 2023).

Experiments:
Type in all cases: binding
[1] = test system: intact ZIKV particles; test: Direct ELISA vs intact ZIKV particles; conditions: for LOD: LOD=SB+3×SDB, interpolated from calibration curve; for FPLR maximum / FPLR minimum: delta absorbance 450 nm; for Long-term stability: dose-response performance of the assay; for FPLR C50 / FPLR slope: four-parameter logistic fit; for dynamic range of dose-response curve (orders of magnitude): in words; for FPLR Dynamic Range: optimized peptide concentration of Table 5 (0.5-20 μM; 4G2 1 μg/ml)
Protocol: Before biotin functionalization, peptides stock solution was reduced using trialkylphosphine (TCEP) from ThermoFisher Scientific (www.thermofisher.com) and after 1 h the gel was removed using TCEP gel spin separation columns (ThermoFisher Scientific). Then, 2-fold molar excess of EZ-Link™ Maleimide-PEG2-Biotin (ThermoFisher Scientific) was added to purified peptide solution and incubated for 1 h. […] Therefore, no further separation was carried out.
(§1) To optimize all parameters of the direct ELISA protocol, Pierce 96-Well Polystyrene Plates, (ThermoFisher Scientific) were coated overnight at 4° C. with different concentrations of intact virus particles (ZIKV or DENV). The intact virus particles were diluted using 100 mM NaHCO3, pH 9.6, and aliquots of 100 μL were dispensed into each well of the plate using a multichannel pipette. This buffer pH assured a strong hydrophobic binding interaction between polystyrene and virus particles.
(§2) Intact particles both ZIKV and DENV were provided by Dr. Watkins group (University of Miami, Dep. of Pathology). The samples were controlled and counted by focus forming assay and RT-PCR, the details were reported in a previous work (Magnani et al., 2017). The Intact particles of ZIKV were inactivated using gamma irradiation. Assay biohazardous steps were carried out according to standard safety procedures.
(§3) After coating the plates overnight, the intact virus particles were removed by washing five times with the washing buffer (PBST) 10 mM PBS pH 7.4, 0.1% Tween-20, using an automated plate washer (MultiWash+, Molecular Devices, Sunnyvale, Calif.). Then, the plates were blocked with 200 μL of blocking buffers while shaking at 300 rpm at room temperature. The blocking buffers used were: Pierce™ Protein-Free (PBS) Blocking Buffer (PF), Blocker™ BLOTTO in TBS, SuperBlock™ Blocking Buffer, Blocker™ BSA (1×) in PBS. All blocking buffer were from ThermoFisher Scientific.
(§4) After 2 h the blocking buffers were removed using the same washing procedure mentioned above. 100 μL-aliquots of several dilutions of peptides biotinylated in 10 mM PBS pH 7.4 were placed in each well and incubated for 2 h while shaking at 300 rpm at room temperature. After the incubation, the unreacted peptides were removed by using the plate washer with the same settings. Then, 100 μL-aliquots of streptavidin-HRP (ThermoFisher Scientific) at a concentration of 20 ng/mL were added into each well and incubated for 30 min at room temperature without shaking. After the incubation, excess streptavidin-HRP was removed and the wells were washed with the plate washer five times using the washing buffer. Finally, 100 μL-aliquots of the Ultra TMB-ELISA Substrate Solution (ThermoFisher Scientific) were added and after 10 min the reaction was stopped by adding 100 μL aliquots of the TMB stop solution (SeraCare). The emission (450 nm) was read using a microplate reader (Clariostar Optima; BMG Labtech, Ortenberg, Germany).
The corresponding blank signals in triplicates were obtained by using all reagents without peptides. The blank signal was then subtracted to the average absorbance values for triplicate wells of each test.
The eight clamp peptides and the four mono-arm peptides selected, were tested vs intact ZIKV particles by using a direct ELISA. The peptides were biotinylated by using the maleimide-PEG2-biotin reagent that reacts with the sulfhydryl group of the cysteine efficiently and specifically by forming a stable thioether bond. The antibody 4G2 hybridoma mouse IgG2a was used as the reference and employed in combination with an anti-mouse IgG conjugated to HRP.
All analytical parameters involved in the development of ELISA were optimized by using 96-well plates coated with triplicate 10-fold serial dilutions of intact ZIKV particles.
Thus, the peptide concentrations reported in Table 5 were used to estimate the dynamic range and the LOD of the assay by using 10-fold serial dilutions of intact ZIKV particles from 10^^1 to 10^^8 copies/mL. […]

[2] = test system: intact ZIKV particles; test: Direct ELISA matrix effect in urine and serum; conditions: urine 1:1, serum 1:10 diluted; 10^5 and 10^6 copies/mL ZIKV
Protocol: Usually, the presence of ZIKV in affected bodies is detected in biological fluids. Therefore, the analytical sensitivity of the selected peptides was tested in two biological matrices, namely, urine and serum. The matrix effect was investigated to understand how real biological fluids could modify the binding efficiency of the peptides.
FIG. 4 depicts the ELISA data using solutions of peptides with or without the urine and serum obtained coating clear 96-well plates with 10^^5 and 10^^6 copies/mL of intact ZIKV particles. Urine and serum were 1:1 and 1:10 diluted, respectively, with a concentrated peptide PBS solution (10 mM PBS, pH 7.4) to obtain a peptide final concentration of 0.5 μM for C3 and C6, 5 μM for C7 and 20 μM for mono-arm peptides (P2 and X1).

[3] = test system: intact DENV particles (DENV-1, -2 and -3); test: Cross-reactivity direct ELISA vs DENV serotypes
Protocol: as §1, §2, §3, §4
The cross-reactivity among Flaviviruses is a key parameter to be tested for this assay. […]

[4] = all DENV serotypes, 10^5 copies/mL coating

Substance | LOD [1] | FPLR maximum [1] | FPLR minimum [1] | Long-term stability [1] [Month] | FPLR C50 [1] | FPLR slope [1] | dynamic range of dose-response curve (orders of magnitude) [1] | FPLR Dynamic Range [1] | ELISA performance in urine and serum [2] | signal decrease DENV vs ZIKV [3, 4] | signal decrease DENV vs ZIKV ([3]; DENV-2, 10^5 copies/mL coating) [%] | signal decrease DENV vs ZIKV ([3]; DENV-3, 10^5 copies/mL coating) [%]
C7: clamp peptide MDSPIK (22) - bridge GPGCCGPG (32) - KRNATP (26) (MDSPIKGPGCCGPGKRNATP; C7 Binds to Active Site 2; Bridge peptide; C3 Binds to Active Site 1) | 3.7 log[ZIKV], copies/mL | 0.95 ΔA | 0.01 ΔA | >1 | 5.8 log[ZIKV], copies/mL | 5.3 | three-order of magnitude | 4-7 log[ZIKV], copies/mL | best performance among the three clamp peptides | around 70% | – | –
C-KTDAYS (CKTDAYS; X2) [mono-arm hexapeptide with N-terminal cysteine] | 5.8 log[ZIKV], copies/mL | 0.91 ΔA | 0.01 ΔA | >1 | 6.1 log[ZIKV], copies/mL | 27.7 | – | 6-8 log[ZIKV], copies/mL | – | – | – | –
C-KRNATP (CKRNATP; X1) [mono-arm hexapeptide with N-terminal cysteine] | 4.8 log[ZIKV], copies/mL | 0.98 ΔA | 0.03 ΔA | >1 | 6.1 log[ZIKV], copies/mL | 20.8 | – | 5-7 log[ZIKV], copies/mL | – | – | – | –
C-LRGHA (CLRGHA; P2) [mono-arm pentapeptide with N-terminal cysteine] | 4.5 log[ZIKV], copies/mL | 0.94 ΔA | 0.04 ΔA | >1 | 6.2 log[ZIKV], copies/mL | 19.9 | – | 5-7 log[ZIKV], copies/mL | – | – | – | –
C-SWPGQ (CSWPGQ; P1) [mono-arm pentapeptide with N-terminal cysteine] | 6.8 log[ZIKV], copies/mL | – | – | >1 | – | – | one order of magnitude | 7-8 log[ZIKV], copies/mL | – | – | – | –
C5: clamp peptide AGRRP (20) - bridge GPGCCGPG (32) - SWPGQ (24) (AGRRPGPGCCGPGSWPGQ; C5 Binds to Active Site 2; Bridge peptide; C1 Binds to Active Site 1) | 5.8 log[ZIKV], copies/mL | 0.17 ΔA | 0.01 ΔA | >1 | 6.4 log[ZIKV], copies/mL | 25.6 | – | 6-7 log[ZIKV], copies/mL | – | – | – | –
C2: clamp peptide WPHTQ (16) - bridge GPGCCGPG (32) - LRGHA (25) (WPHTQGPGCCGPGLRGHA; C1 Binds to Active Site 2; Bridge peptide; C2 Binds to Active Site 1) | 4.5 log[ZIKV], copies/mL | 0.55 ΔA | 0.05 ΔA | >1 | 6.2 log[ZIKV], copies/mL | 25.4 | – | 5-7 log[ZIKV], copies/mL | – | – | – | –
C4: clamp peptide WPWIGT (18) - bridge GPGCCGPG (32) - KTDAYS (27) (WPWIGTGPGCCGPGKTDAYS; C3 Binds to Active Site 2; Bridge peptide; C4 Binds to Active Site 1) | 5.7 log[ZIKV], copies/mL | 0.40 ΔA | 0.02 ΔA | >1 | 6.3 log[ZIKV], copies/mL | 32.8 | – | 6-7 log[ZIKV], copies/mL | – | – | – | –
C3: clamp peptide WPWIGT (18) - bridge GPGCCGPG (32) - KRNATP (26) (WPWIGTGPGCCGPGKRNATP; C3 Binds to Active Site 2; Bridge peptide; C3 Binds to Active Site 1) | 3.5 log[ZIKV], copies/mL | 0.67 ΔA | 0.05 ΔA | >1 | 5.3 log[ZIKV], copies/mL | 8.7 | three-order of magnitude | 4-7 log[ZIKV], copies/mL | better performance in urine than serum | around 70% | – | –
C6: clamp peptide AGRRP (20) - bridge GPGCCGPG (32) - LRGHA (25) (AGRRPGPGCCGPGLRGHA; C5 Binds to Active Site 2; Bridge peptide; C2 Binds to Active Site 1) | 3.5 log[ZIKV], copies/mL | 0.53 ΔA | 0.05 ΔA | >1 | 5.2 log[ZIKV], copies/mL | 10.1 | three-order of magnitude | 4-7 log[ZIKV], copies/mL | strong decrease in the signal | – | 45 | 55
C8: clamp peptide MDSPIK (22) - bridge GPGCCGPG (32) - KTDAYS (27) (MDSPIKGPGCCGPGKTDAYS; C7 Binds to Active Site 2; Bridge peptide; C4 Binds to Active Site 1) | 4.7 log[ZIKV], copies/mL | 0.82 ΔA | 0.03 ΔA | >1 | 6.2 log[ZIKV], copies/mL | 33.9 | – | 5-7 log[ZIKV], copies/mL | – | – | – | –
